Read-outs that look alike come from different tables or passages of the source.
Columns and labels:
[1] = Gravimetric moisture sorption analysis, with XRPD afterwards; type: physicochemical
Procedure: Moisture sorption analysis of the Rx100.L-Lysine salt was performed by equilibrating the sample at 25° C. and 50% RH to simulate ambient lab conditions. Humidity then decreased to 0% RH, increased from 0 to 95% RH, reduced from 95 to 0% RH, increased from 0 to 95% RH and then decreased from 95 to 50% RH.

[2] = tested on: S. typhimurium strains TA98, TA100, TA1535 and TA1537 and E. coli strain WP2uvrA; type: cell-based
Procedure: An Ames assay was conducted on Rx100.Lysine using S. typhimurium strains TA98, TA100, TA1535 and TA1537 and E. coli strain WP2uvrA. Two trials were performed. […] See Tables 38A and 38B, respectively. In the second trial, doses ranged from 0.160 to 16 μg/plate with some strains tested with activation and others without activation.

In the case of `CCCCCCCC/C=C\CCCCCCCCOP(O)(O)=S` [Rx100.L-Lysine, (Z)—O-octadec-9-en-1-yl O,O-dihydrogen phosphorothioate], the Hygroscopicity [1] was “hygroscopic”, the “Residual water content after desorption” value [1] was < 3% and the “Water adsorbed in moisture sorption analysis” value ([1]; at 95% RH, 25° C.) was 20.6%. For the same compound, the “Form by XRPD after moisture sorption analysis” value ([1]; compared with Pattern A) was “no change in form”, the “Ames assay, overall result” value [2] was “negative” and the “Genotoxic Effects” value ([2]; Bacterial Reverse Mutation Assay, plate incorporation 52 ± 4 hours) was “Genotoxic Effects: None”. For the same compound, the “Revertant Colony Counts (Mean ± SD)” value ([2]; TA98, with metabolic activation, 1.45 μg/plate) was 17 ± 5 ^N, the “Revertant Colony Counts (Mean ± SD)” value ([2]; TA98, with metabolic activation, 4.52 μg/plate) was 19 ± 3 ^N and the “Revertant Colony Counts (Mean ± SD)” value ([2]; TA98, with metabolic activation, 14.5 μg/plate) was 16 ± 5 ^N. For the same compound, the “Revertant Colony Counts (Mean ± SD)” value ([2]; TA98, with metabolic activation, 45.2 μg/plate) was 20 ± 6 ^N, the “Revertant Colony Counts (Mean ± SD)” value ([2]; TA98, with metabolic activation, 145 μg/plate) was 0 ± 0 ^E and the “Revertant Colony Counts (Mean ± SD)” value ([2]; TA98, with metabolic activation, 452 μg/plate) was 0 ± 0 ^V. The “Revertant Colony Counts (Mean ± SD)” value ([2]; TA98, with metabolic activation, 1450 μg/plate) was 0 ± 0 ^A, the “Revertant Colony Counts (Mean ± SD)” value ([2]; TA98, with metabolic activation, 4520 μg/plate) was 0 ± 0 ^A and the “Revertant Colony Counts (Mean ± SD)” value ([2]; TA100, with metabolic activation, 1.45 μg/plate) was 114 ± 12 ^N. The “Revertant Colony Counts (Mean ± SD)” value ([2]; TA100, with metabolic activation, 4.52 μg/plate) was 117 ± 5 ^N, the “Revertant Colony Counts (Mean ± SD)” value ([2]; TA100, with metabolic activation, 14.5 μg/plate) was 89 ± 14 ^N and the “Revertant Colony Counts (Mean ± SD)” value ([2]; TA100, with metabolic activation, 45.2 μg/plate) was 26 ± 3 ^E. For the same compound, the “Revertant Colony Counts (Mean ± SD)” value ([2]; TA100, with metabolic activation, 145 μg/plate) was 39 ± 3 ^M R, the “Revertant Colony Counts (Mean ± SD)” value ([2]; TA100, with metabolic activation, 452 μg/plate) was 0 ± 0 ^A T and the “Revertant Colony Counts (Mean ± SD)” value ([2]; TA100, with metabolic activation, 1450 μg/plate) was 0 ± 0 ^M A T. For the same compound, the “Revertant Colony Counts (Mean ± SD)” value ([2]; TA100, with metabolic activation, 4520 μg/plate) was 0 ± 0 ^A T, the “Revertant Colony Counts (Mean ± SD)” value ([2]; TA1535, with metabolic activation, 0.0181 μg/plate) was 10 ± 4 ^N M and the “Revertant Colony Counts (Mean ± SD)” value ([2]; TA1535, with metabolic activation, 0.0452 μg/plate) was 11 ± 2 ^C M N. The “Revertant Colony Counts (Mean ± SD)” value ([2]; TA1535, with metabolic activation, 0.145 μg/plate) was 9 ± 3 ^N, the “Revertant Colony Counts (Mean ± SD)” value ([2]; TA1535, with metabolic activation, 0.452 μg/plate) was 13 ± 1 ^N and the “Revertant Colony Counts (Mean ± SD)” value ([2]; TA1535, with metabolic activation, 1.45 μg/plate) was 11 ± 5 ^N. For the same compound, the “Revertant Colony Counts (Mean ± SD)” value ([2]; TA1535, with metabolic activation, 4.52 μg/plate) was 9 ± 1 ^N, the “Revertant Colony Counts (Mean ± SD)” value ([2]; TA1535, with metabolic activation, 14.5 μg/plate) was 11 ± 3 ^N and the “Revertant Colony Counts (Mean ± SD)” value ([2]; TA1537, with metabolic activation, 1.45 μg/plate) was 9 ± 3 ^N. The “Revertant Colony Counts (Mean ± SD)” value ([2]; TA1537, with metabolic activation, 4.52 μg/plate) was 7 ± 2 ^N M, the “Revertant Colony Counts (Mean ± SD)” value ([2]; TA1537, with metabolic activation, 14.5 μg/plate) was 6 ± 5 ^M N and the “Revertant Colony Counts (Mean ± SD)” value ([2]; TA1537, with metabolic activation, 45.2 μg/plate) was 3 ± 2 ^E. For the same compound, the “Revertant Colony Counts (Mean ± SD)” value ([2]; TA1537, with metabolic activation, 145 μg/plate) was 0 ± 0 ^R, the “Revertant Colony Counts (Mean ± SD)” value ([2]; TA1537, with metabolic activation, 452 μg/plate) was 0 ± 0 ^V and the “Revertant Colony Counts (Mean ± SD)” value ([2]; TA1537, with metabolic activation, 1450 μg/plate) was 0 ± 0 ^V. For the same compound, the “Revertant Colony Counts (Mean ± SD)” value ([2]; TA1537, with metabolic activation, 4520 μg/plate) was 0 ± 0 ^A, the “Revertant Colony Counts (Mean ± SD)” value ([2]; WP2uvrA, with metabolic activation, 1.45 μg/plate) was 13 ± 4 ^N and the “Revertant Colony Counts (Mean ± SD)” value ([2]; WP2uvrA, with metabolic activation, 4.52 μg/plate) was 17 ± 4 ^M N. The “Revertant Colony Counts (Mean ± SD)” value ([2]; WP2uvrA, with metabolic activation, 14.5 μg/plate) was 19 ± 4 ^N, the “Revertant Colony Counts (Mean ± SD)” value ([2]; WP2uvrA, with metabolic activation, 45.2 μg/plate) was 12 ± 4 ^N and the “Revertant Colony Counts (Mean ± SD)” value ([2]; WP2uvrA, with metabolic activation, 145 μg/plate) was 15 ± 4 ^N M. For the same compound, the “Revertant Colony Counts (Mean ± SD)” value ([2]; WP2uvrA, with metabolic activation, 452 μg/plate) was 15 ± 5 ^N, the “Revertant Colony Counts (Mean ± SD)” value ([2]; WP2uvrA, with metabolic activation, 1450 μg/plate) was 9 ± 3 ^N and the “Revertant Colony Counts (Mean ± SD)” value ([2]; WP2uvrA, with metabolic activation, 4520 μg/plate) was 0 ± 0 ^E. For the same compound, the “Revertant Colony Counts (Mean ± SD)” value ([2]; Without Metabolic Activation, TA98, 0.0181 μg/plate) was 15 ± 3 ^N, the “Revertant Colony Counts (Mean ± SD)” value ([2]; Without Metabolic Activation, TA98, 0.0452 μg/plate) was 15 ± 5 ^N M and the “Revertant Colony Counts (Mean ± SD)” value ([2]; Without Metabolic Activation, TA98, 0.145 μg/plate) was 13 ± 2 ^N M. The “Revertant Colony Counts (Mean ± SD)” value ([2]; Without Metabolic Activation, TA98, 0.452 μg/plate) was 13 ± 5 ^N, the “Revertant Colony Counts (Mean ± SD)” value ([2]; Without Metabolic Activation, TA98, 1.45 μg/plate) was 14 ± 2 ^N and the “Revertant Colony Counts (Mean ± SD)” value ([2]; Without Metabolic Activation, TA98, 4.52 μg/plate) was 12 ± 4 ^N. The “Revertant Colony Counts (Mean ± SD)” value ([2]; Without Metabolic Activation, TA98, 14.5 μg/plate) was 12 ± 3 ^N, the “Revertant Colony Counts (Mean ± SD)” value ([2]; Without Metabolic Activation, TA100, 0.0181 μg/plate) was 92 ± 8 ^N and the “Revertant Colony Counts (Mean ± SD)” value ([2]; Without Metabolic Activation, TA100, 0.0452 μg/plate) was 93 ± 16 ^N. For the same compound, the “Revertant Colony Counts (Mean ± SD)” value ([2]; Without Metabolic Activation, TA100, 0.145 μg/plate) was 88 ± 11 ^N, the “Revertant Colony Counts (Mean ± SD)” value ([2]; Without Metabolic Activation, TA100, 0.452 μg/plate) was 86 ± 13 ^N and the “Revertant Colony Counts (Mean ± SD)” value ([2]; Without Metabolic Activation, TA100, 1.45 μg/plate) was 84 ± 16 ^N. The “Revertant Colony Counts (Mean ± SD)” value ([2]; Without Metabolic Activation, TA100, 4.52 μg/plate) was 53 ± 7 ^R, the “Revertant Colony Counts (Mean ± SD)” value ([2]; Without Metabolic Activation, TA100, 14.5 μg/plate) was 51 ± 4 ^M R and the “Revertant Colony Counts (Mean ± SD)” value ([2]; Without Metabolic Activation, TA1535, 0.0181 μg/plate) was 15 ± 4 ^N. For the same compound, the “Revertant Colony Counts (Mean ± SD)” value ([2]; Without Metabolic Activation, TA1535, 0.0452 μg/plate) was 16 ± 2 ^N, the “Revertant Colony Counts (Mean ± SD)” value ([2]; Without Metabolic Activation, TA1535, 0.145 μg/plate) was 12 ± 1 ^N and the “Revertant Colony Counts (Mean ± SD)” value ([2]; Without Metabolic Activation, TA1535, 0.452 μg/plate) was 11 ± 3 ^N. The “Revertant Colony Counts (Mean ± SD)” value ([2]; Without Metabolic Activation, TA1535, 1.45 μg/plate) was 11 ± 2 ^N, the “Revertant Colony Counts (Mean ± SD)” value ([2]; Without Metabolic Activation, TA1535, 4.52 μg/plate) was 8 ± 3 ^N and the “Revertant Colony Counts (Mean ± SD)” value ([2]; Without Metabolic Activation, TA1535, 14.5 μg/plate) was 4 ± 1 ^R M. For the same compound, the “Revertant Colony Counts (Mean ± SD)” value ([2]; Without Metabolic Activation, TA1537, 0.0181 μg/plate) was 6 ± 4 ^N, the “Revertant Colony Counts (Mean ± SD)” value ([2]; Without Metabolic Activation, TA1537, 0.0452 μg/plate) was 6 ± 3 ^N M and the “Revertant Colony Counts (Mean ± SD)” value ([2]; Without Metabolic Activation, TA1537, 0.145 μg/plate) was 5 ± 0 ^M N. For the same compound, the “Revertant Colony Counts (Mean ± SD)” value ([2]; Without Metabolic Activation, TA1537, 0.452 μg/plate) was 6 ± 3 ^M N, the “Revertant Colony Counts (Mean ± SD)” value ([2]; Without Metabolic Activation, TA1537, 1.45 μg/plate) was 5 ± 2 ^N and the “Revertant Colony Counts (Mean ± SD)” value ([2]; Without Metabolic Activation, TA1537, 4.52 μg/plate) was 3 ± 4 ^N. The “Revertant Colony Counts (Mean ± SD)” value ([2]; Without Metabolic Activation, TA1537, 14.5 μg/plate) was 1 ± 1 ^R M, the “Revertant Colony Counts (Mean ± SD)” value ([2]; Without Metabolic Activation, WP2uvrA, 1.45 μg/plate) was 12 ± 5 ^N and the “Revertant Colony Counts (Mean ± SD)” value ([2]; Without Metabolic Activation, WP2uvrA, 4.52 μg/plate) was 13 ± 3 ^M N. The “Revertant Colony Counts (Mean ± SD)” value ([2]; Without Metabolic Activation, WP2uvrA, 14.5 μg/plate) was 17 ± 6 ^N, the “Revertant Colony Counts (Mean ± SD)” value ([2]; Without Metabolic Activation, WP2uvrA, 45.2 μg/plate) was 14 ± 4 ^N and the “Revertant Colony Counts (Mean ± SD)” value ([2]; Without Metabolic Activation, WP2uvrA, 145 μg/plate) was 15 ± 3 ^N. The “Revertant Colony Counts (Mean ± SD)” value ([2]; Without Metabolic Activation, WP2uvrA, 452 μg/plate) was 12 ± 2 ^N, the “Revertant Colony Counts (Mean ± SD)” value ([2]; Without Metabolic Activation, WP2uvrA, 1450 μg/plate) was 8 ± 3 ^E and the “Revertant Colony Counts (Mean ± SD)” value ([2]; Without Metabolic Activation, WP2uvrA, 4520 μg/plate) was 0 ± 0 ^E. For the same compound, the revertant colonies ([2]; any strain, any concentration (1.6 to 5000 μg/plate; 0.160 to 16 μg/plate), with or without metabolic activation) was “No increase in revertant colonies”.

Reference: patent publication US20170226139A1, “CRYSTALLINE SALTS OF (Z)-O-OCTADEC-9-EN-1-YL O,O-DIHYDROGEN PHOSPHOROTHIOATE” (priority 2013, published 2017)
